System: MV-4-11 cells
Experiment: Gene expression microarray analysis (Affymetrix PrimeView) and GSEA
Assay type: cell-based, human
Design: RFU PODN (11730768_x_at) / Fold change /veh PODN (11730768_x_at) / RFU LINC00158 (11744669_a_at) / Fold change /veh LINC00158 (11744669_a_at) / RFU DUSP10 (11751237_a_at) / Fold change /veh DUSP10 (11751237_a_at) / RFU ID3 (11757404_x_at) / Fold change /veh ID3 (11757404_x_at) / RFU PLEKHG5 (11737974_s_at) / Fold change /veh PLEKHG5 (11737974_s_at) / RFU LRRC4B (11730491_at) / Fold change /veh LRRC4B (11730491_at) / RFU GIMAP4 (11747438_a_at) / Fold change /veh GIMAP4 (11747438_a_at) / RFU KRT8 (11758183_x_at) / Fold change /veh KRT8 (11758183_x_at) / RFU CNN1 (11734310_a_at) / Fold change /veh CNN1 (11734310_a_at) / RFU VPS37D (11726825_at) / Fold change /veh VPS37D (11726825_at) / RFU C10orf10 (11716522_x_at) / Fold change /veh C10orf10 (11716522_x_at) / RFU KIR2DL2 /// KIR2DL4 /// KIR2DL5A /// KIR2DL5B /// KIR2DS1 /// KIR2DS2 /// KIR2DS3 /// KIR2DS4 /// KIR3DL3 /// KIR3DL3 /// KIR3DS1 (11738374_at) / Fold change /veh KIR2DL2 /// KIR2DL4 /// KIR2DL5A /// KIR2DL5B /// KIR2DS1 /// KIR2DS2 /// KIR2DS3 /// KIR2DS4 /// KIR3DL3 /// KIR3DL3 /// KIR3DS1 (11738374_at) / RFU C1QL1 (11718748_at) / Fold change /veh C1QL1 (11718748_at) / RFU TMPRSS4 (11747572_a_at) / Fold change /veh TMPRSS4 (11747572_a_at) / RFU HAMP (11756126_x_at) / Fold change /veh HAMP (11756126_x_at) / RFU RNFT2 (11725882_a_at) / Fold change /veh RNFT2 (11725882_a_at) / RFU NR4A2 (11747474_a_at) / Fold change /veh NR4A2 (11747474_a_at) / RFU ABCC12 (11746883_a_at) / Fold change /veh ABCC12 (11746883_a_at) / RFU TMEM136 (11760407_x_at) / Fold change /veh TMEM136 (11760407_x_at) / RFU CLDN22 /// WWC2 (11732394_at) / Fold change /veh CLDN22 /// WWC2 (11732394_at) / RFU HLA-DPB1 (11760878_x_at) / Fold change /veh HLA-DPB1 (11760878_x_at) / RFU SPINT1 (11716480_a_at) / Fold change /veh SPINT1 (11716480_a_at) / RFU GAP43 (11754022_s_at) / Fold change /veh GAP43 (11754022_s_at) / RFU A4GNT (11735810_at) / Fold change /veh A4GNT (11735810_at) / RFU PRB3 (11715151_x_at) / Fold change /veh PRB3 (11715151_x_at) / RFU TUBB4B (11761932_at) / Fold change /veh TUBB4B (11761932_at) / RFU CAPN14 (11732068_a_at) / Fold change /veh CAPN14 (11732068_a_at) / RFU TMCC2 (11721928_a_at) / Fold change /veh TMCC2 (11721928_a_at) / RFU IRGQ (11745062_a_at) / Fold change /veh IRGQ (11745062_a_at) / RFU FAM174B (11720279_a_at) / Fold change /veh FAM174B (11720279_a_at) / RFU TMPRSS4 (11748680_a_at) / Fold change /veh TMPRSS4 (11748680_a_at) / RFU FAM212B (11763350_a_at) / Fold change /veh FAM212B (11763350_a_at) / RFU PLEKHG5 (11743358_a_at) / Fold change /veh PLEKHG5 (11743358_a_at) / RFU ZSCAN30 (11745921_a_at) / Fold change /veh ZSCAN30 (11745921_a_at) / RFU CMKLR1 (11741424_a_at) / Fold change /veh CMKLR1 (11741424_a_at) / RFU LOC101060620 /// MAPK8IP1 (11723275_at) / Fold change /veh LOC101060620 /// MAPK8IP1 (11723275_at) / RFU SPTSSB (11747773_x_at) / Fold change /veh SPTSSB (11747773_x_at) / RFU PRSS12 (11739890_at) / Fold change /veh PRSS12 (11739890_at) / RFU BIN1 (11741810_x_at) / Fold change /veh BIN1 (11741810_x_at) / RFU WNT11 (11732464_a_at) / Fold change /veh WNT11 (11732464_a_at) / RFU C10orf10 (11716521_a_at) / Fold change /veh C10orf10 (11716521_a_at) / RFU C5orf56 (11738089_at) / Fold change /veh C5orf56 (11738089_at) / RFU CYB561 (11721691_x_at) / Fold change /veh CYB561 (11721691_x_at) / RFU ANKRD19P (11752326_a_at) / Fold change /veh ANKRD19P (11752326_a_at) / RFU OR2T12 /// OR2T33 /// OR2T8 (11738714_s_at) / Fold change /veh OR2T12 /// OR2T33 /// OR2T8 (11738714_s_at) / RFU VCAN (11748164_a_at) / Fold change /veh VCAN (11748164_a_at) / RFU JSRP1 (11732532_at) / Fold change /veh JSRP1 (11732532_at) / RFU KRTAP10-11 (11738290_x_at) / Fold change /veh KRTAP10-11 (11738290_x_at) / RFU MYO3A (11730013_a_at) / Fold change /veh MYO3A (11730013_a_at) / RFU EBF3 (11725865_a_at) / Fold change /veh EBF3 (11725865_a_at) / RFU CAMK2N1 (11719241_x_at) / Fold change /veh CAMK2N1 (11719241_x_at) / RFU C5orf56 (11738088_a_at) / Fold change /veh C5orf56 (11738088_a_at) / RFU OLFML3 (11715873_a_at) / Fold change /veh OLFML3 (11715873_a_at) / RFU LOC100653217 /// NTM (11731650_a_at) / Fold change /veh LOC100653217 /// NTM (11731650_a_at) / RFU MAPK11 (11762145_a_at) / Fold change /veh MAPK11 (11762145_a_at) / RFU FIZ1 (11724087_x_at) / Fold change /veh FIZ1 (11724087_x_at) / RFU OASL (11726364_x_at) / Fold change /veh OASL (11726364_x_at) / RFU SOX15 (11748057_x_at) / Fold change /veh SOX15 (11748057_x_at) / RFU CD79A (11719716_a_at) / Fold change /veh CD79A (11719716_a_at) / RFU HIST1H1D (11736915_at) / Fold change /veh HIST1H1D (11736915_at) / RFU CASKIN2 (11723855_a_at) / Fold change /veh CASKIN2 (11723855_a_at) / RFU LOC730098 (11760151_x_at) / Fold change /veh LOC730098 (11760151_x_at) / RFU OR4N2 (11742367_at) / Fold change /veh OR4N2 (11742367_at) / RFU PRRT2 (11749266_a_at) / Fold change /veh PRRT2 (11749266_a_at) / RFU SNX32 (11753110_a_at) / Fold change /veh SNX32 (11753110_a_at) / RFU CDHR5 (11726645_a_at) / Fold change /veh CDHR5 (11726645_a_at) / RFU RCAN1 (11760418_a_at) / Fold change /veh RCAN1 (11760418_a_at) / RFU FAM167A (11723789_a_at) / Fold change /veh FAM167A (11723789_a_at) / RFU FAM26E (11764081_at) / Fold change /veh FAM26E (11764081_at) / RFU ISYNA1 (11749810_s_at) / Fold change /veh ISYNA1 (11749810_s_at) / RFU ACY1 (11761880_at) / Fold change /veh ACY1 (11761880_at) / RFU 11764098_at / Fold change /veh 11764098_at / RFU SAMD14 (11745864_x_at) / Fold change /veh SAMD14 (11745864_x_at) / RFU NPB (11741838_a_at) / Fold change /veh NPB (11741838_a_at) / RFU TMPRSS6 (11731388_a_at) / Fold change /veh TMPRSS6 (11731388_a_at) / RFU KRTAP10-2 (11738614_at) / Fold change /veh KRTAP10-2 (11738614_at) / RFU ARHGAP8 /// PRR5-ARHGAP8 (11727945_x_at) / Fold change /veh ARHGAP8 /// PRR5-ARHGAP8 (11727945_x_at) / RFU KRTAP5-7 /// NADSYN1 (11734609_at) / Fold change /veh KRTAP5-7 /// NADSYN1 (11734609_at) / RFU RASL12 (11751679_a_at) / Fold change /veh RASL12 (11751679_a_at) / RFU CDKN2B (11736163_a_at) / Fold change /veh CDKN2B (11736163_a_at) / RFU PRF1 (11729649_at) / Fold change /veh PRF1 (11729649_at) / RFU, ZNF638 /// ZNF638-IT1 / Fold change vs veh, ZNF638 /// ZNF638-IT1 / RFU, PANK3 / Fold change vs veh, PANK3 / RFU, SH3YL1 / Fold change vs veh, SH3YL1 / RFU, ZEB2 / Fold change vs veh, ZEB2 / RFU, NRIP1 / Fold change vs veh, NRIP1 / RFU, PTTG1IP / Fold change vs veh, PTTG1IP / RFU, CAPN2 / Fold change vs veh, CAPN2 / RFU, MED14 / Fold change vs veh, MED14 / RFU, SNORA58 / Fold change vs veh, SNORA58 / RFU, C1orf63 / Fold change vs veh, C1orf63 / RFU, LRRFIP1 / Fold change vs veh, LRRFIP1 / RFU, NDUFAF7 / Fold change vs veh, NDUFAF7 / RFU, SLC12A2 / Fold change vs veh, SLC12A2 / RFU, IBTK / Fold change vs veh, IBTK / RFU, ESF1 / Fold change vs veh, ESF1 / Fold change vs veh, TMEM50B / RFU, TAOK1 / Fold change vs veh, TAOK1 / RFU, ACBD3 / Fold change vs veh, ACBD3 / RFU, TMA16 / Fold change vs veh, TMA16 / RFU, RWDD3 / Fold change vs veh, RWDD3 / RFU, BCAT1 / Fold change vs veh, BCAT1 / RFU, EDEM3 / Fold change vs veh, EDEM3 / RFU, TMEM33 / Fold change vs veh, TMEM33 / RFU, WDR75 / Fold change vs veh, WDR75 / RFU, AHCTF1 / Fold change vs veh, AHCTF1 / RFU, TFRC / Fold change vs veh, TFRC / RFU, ZDHHC17 / Fold change vs veh, ZDHHC17 / RFU, NOM1 / Fold change vs veh, NOM1 / RFU, ARL8B / Fold change vs veh, ARL8B / RFU, ZBTB11 / Fold change vs veh, ZBTB11 / RFU, TAMM41 / Fold change vs veh, TAMM41 / RFU, KIAA1704 /// LOC100996395 / Fold change vs veh, KIAA1704 /// LOC100996395 / RFU, ING1 / Fold change vs veh, ING1 / RFU, TRMT61B / Fold change vs veh, TRMT61B / RFU, FUBP3 / Fold change vs veh, FUBP3 / RFU, TP53 / Fold change vs veh, TP53 / RFU, TNKS2 / Fold change vs veh, TNKS2 / RFU, ZFP14 / Fold change vs veh, ZFP14 / RFU, ACTR2 / Fold change vs veh, ACTR2 / RFU, PPP3R1 / Fold change vs veh, PPP3R1 / RFU, PIK3R1 / Fold change vs veh, PIK3R1 / RFU, HNRNPA1 / Fold change vs veh, HNRNPA1 / RFU, RNF170 / Fold change vs veh, RNF170 / RFU, ZNF28 / Fold change vs veh, ZNF28 / RFU, RNGTT / Fold change vs veh, RNGTT / RFU, OGT / Fold change vs veh, OGT / RFU, BRD1 / Fold change vs veh, BRD1 / RFU, MARS / Fold change vs veh, MARS / RFU, ZNF655 / Fold change vs veh, ZNF655 / RFU, FAHD1 / Fold change vs veh, FAHD1 / RFU, BDP1 / Fold change vs veh, BDP1 / RFU, LRRCC1 / Fold change vs veh, LRRCC1 / RFU, ARID1A / Fold change vs veh, ARID1A / RFU, ZNF146 / Fold change vs veh, ZNF146 / RFU, ZNF330 / Fold change vs veh, ZNF330 / RFU, GPN3 / Fold change vs veh, GPN3 / RFU, C9orf123 / Fold change vs veh, C9orf123 / RFU, N4BP2L2 / Fold change vs veh, N4BP2L2 / RFU, ARFIP1 / Fold change vs veh, ARFIP1 / RFU, FAM179B / Fold change vs veh, FAM179B / RFU, BCL10 / Fold change vs veh, BCL10 / RFU, UHRF1BP1L / Fold change vs veh, UHRF1BP1L / RFU, BET1 / Fold change vs veh, BET1 / RFU, CNOT2 / Fold change vs veh, CNOT2 / RFU, ZNF268 / Fold change vs veh, ZNF268 / Fold change vs veh, ZNF507 / RFU, DGCR2 / Fold change vs veh, DGCR2 / RFU, WDSUB1 / Fold change vs veh, WDSUB1 / Fold change vs veh, HSP90B1 /// MIR3652 / RFU, ADSS / Fold change vs veh, ADSS / RFU, GK / Fold change vs veh, GK / RFU, ZNF148 / Fold change vs veh, ZNF148 / RFU, TAF9 / Fold change vs veh, TAF9 / RFU, SLC1A5 / Fold change vs veh, SLC1A5 / RFU, SLMO2 / Fold change vs veh, SLMO2 / RFU, ABCC4 / Fold change vs veh, ABCC4 / RFU, LOC101060439 /// RAP1B / Fold change vs veh, LOC101060439 /// RAP1B / RFU, RFX7 / Fold change vs veh, RFX7 / RFU, GTPBP10 / Fold change vs veh, GTPBP10 / RFU, CNEP1R1 / Fold change vs veh, CNEP1R1 / RFU, BIVM-ERCC5 /// ERCC5 / Fold change vs veh, BIVM-ERCC5 /// ERCC5 / RFU, ILF3 / Fold change vs veh, ILF3 / RFU 11762660_at / Fold change /veh 11762660_at / RFU VCAN (11757783_s_at) / Fold change /veh VCAN (11757783_s_at) / RFU DDX43 (11728927_at) / Fold change /veh DDX43 (11728927_at) / RFU KRT8 (11758188_x_at) / Fold change /veh KRT8 (11758188_x_at) / RFU NKD1 (11759106_at) / Fold change /veh NKD1 (11759106_at) / RFU SRD5A1 (11742802_a_at) / Fold change /veh SRD5A1 (11742802_a_at) / RFU TPSAB1 /// TPSB2 (11721975_s_at) / Fold change /veh TPSAB1 /// TPSB2 (11721975_s_at) / RFU GSTM3 (11746129_a_at) / Fold change /veh GSTM3 (11746129_a_at) / RFU IL23R (11737362_x_at) / Fold change /veh IL23R (11737362_x_at) / RFU TMEM51 (11727254_a_at) / Fold change /veh TMEM51 (11727254_a_at) / RFU PIWIL2 (11732686_x_at) / Fold change /veh PIWIL2 (11732686_x_at) / RFU ORM1 (11744905_x_at) / Fold change /veh ORM1 (11744905_x_at) / RFU CCDC152 (11743942_at) / Fold change /veh CCDC152 (11743942_at) / RFU ECM1 (11717891_a_at) / Fold change /veh ECM1 (11717891_a_at) / RFU IL23R (11748794_a_at) / Fold change /veh IL23R (11748794_a_at) / RFU TNFAIP8L3 (11732012_x_at) / Fold change /veh TNFAIP8L3 (11732012_x_at) / RFU MBOAT4 (11741988_at) / Fold change /veh MBOAT4 (11741988_at) / RFU 11764193_at / Fold change /veh 11764193_at / RFU TMEM53 (11763286_at) / Fold change /veh TMEM53 (11763286_at) / RFU MAGEB2 (11727129_at) / Fold change /veh MAGEB2 (11727129_at) / RFU TMEM200A (11744735_a_at) / Fold change /veh TMEM200A (11744735_a_at) / RFU CCDC152 (11751479_a_at) / Fold change /veh CCDC152 (11751479_a_at) / RFU FAM211A (11726209_a_at) / Fold change /veh FAM211A (11726209_a_at) / RFU RGS16 (11746705_a_at) / Fold change /veh RGS16 (11746705_a_at) / RFU VCAN (11755009_s_at) / Fold change /veh VCAN (11755009_s_at) / RFU RHOB (11743442_s_at) / Fold change /veh RHOB (11743442_s_at) / RFU RGS16 (11720943_a_at) / Fold change /veh RGS16 (11720943_a_at) / RFU RGS16 (11720944_at) / Fold change /veh RGS16 (11720944_at) / RFU, VPS4B / Fold change vs veh, VPS4B / RFU, CREB1 / Fold change vs veh, CREB1 / RFU, DNAJC13 / Fold change vs veh, DNAJC13 / RFU, GNAQ / Fold change vs veh, GNAQ / RFU, CDK5R1 / Fold change vs veh, CDK5R1 / RFU, ZRANB3 / Fold change vs veh, ZRANB3 / RFU, CUL4A / Fold change vs veh, CUL4A / RFU, CCNY / Fold change vs veh, CCNY / RFU, UFL1 / Fold change vs veh, UFL1 / RFU, COG3 / Fold change vs veh, COG3 / RFU, DIAPH2 / Fold change vs veh, DIAPH2 / RFU, SKA2 / Fold change vs veh, SKA2 / RFU, AFF3 / Fold change vs veh, AFF3 / RFU, LMF1 / Fold change vs veh, LMF1 / RFU, IPO11 / Fold change vs veh, IPO11 / RFU, DFFB / Fold change vs veh, DFFB / RFU, FOXP1 / Fold change vs veh, FOXP1 / RFU, CARD8 / Fold change vs veh, CARD8 / RFU, STRN3 / Fold change vs veh, STRN3 / RFU, ADK / Fold change vs veh, ADK / RFU, RASSF2 / Fold change vs veh, RASSF2 / RFU, WIPF1 / Fold change vs veh, WIPF1 / RFU, LARP1B / Fold change vs veh, LARP1B / RFU, RASA1 / Fold change vs veh, RASA1 / RFU, RB1 / Fold change vs veh, RB1 / RFU, PPFIA1 / Fold change vs veh, PPFIA1 / RFU, MAT2A / Fold change vs veh, MAT2A / RFU, CCT5 / Fold change vs veh, CCT5 / RFU, WDR92 / Fold change vs veh, WDR92 / RFU, CUX1 / Fold change vs veh, CUX1 / RFU, TTC7A / Fold change vs veh, TTC7A / RFU, TMEM135 / Fold change vs veh, TMEM135 / RFU, DEPTOR / Fold change vs veh, DEPTOR / RFU, CPM / Fold change vs veh, CPM / RFU, DNAJB6 / Fold change vs veh, DNAJB6 / RFU, CACNA2D3 / Fold change vs veh, CACNA2D3 / RFU, DTX4 / Fold change vs veh, DTX4 / RFU, TFCP2 / Fold change vs veh, TFCP2 / RFU, GMCL1 /// GMCL1P1 / Fold change vs veh, GMCL1 /// GMCL1P1 / RFU, AEBP2 / Fold change vs veh, AEBP2 / RFU, SNHG1 /// SNORD22 /// SNORD25 /// SNORD26 /// SNORD27 /// SNORD28 /// SNORD29 /// SNORD31 / Fold change vs veh, SNHG1 /// SNORD22 /// SNORD25 /// SNORD26 /// SNORD27 /// SNORD28 /// SNORD29 /// SNORD31 / Fold change (Aza/veh), C12orf56 (ProbeSet 11735607_a_at) / Fold change (ACY-1035/veh), C12orf56 (ProbeSet 11735607_a_at) / Fold change (Aza/veh), FGFR1OP (ProbeSet 11751329_s_at) / Fold change (ACY-1035/veh), FGFR1OP (ProbeSet 11751329_s_at) / Fold change (Aza/veh), VPS36 (ProbeSet 11739960_a_at) / Fold change (ACY-1035/veh), VPS36 (ProbeSet 11739960_a_at) / RFU SYPL1 (11715823_x_at) / Fold change /veh SYPL1 (11715823_x_at) / RFU IGFBP7 (11715501_s_at) / Fold change /veh IGFBP7 (11715501_s_at) / RFU REEP3 (11722064_at) / Fold change /veh REEP3 (11722064_at) / RFU IGLL1 (11728026_x_at) / Fold change /veh IGLL1 (11728026_x_at): dose or concentration left out as unconfirmed
Details: ProbeSet 11757268_x_at; LIST B

## Nc1ncn([C@@H]2O[C@H](CO)[C@@H](O)[C@H]2O)c(=O)n1 [azacitidine]
  RFU, HNRNPA1: 4469.53 RFU
